Measurements: PubChem BioAssay (NCI)
Several values for one entry are separate records, joined by “and”; a condition that tells them apart may be missing. Identical values can stand only once.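 Exposure lasted 48 hours, with cells grown in 96-well plates and compounds tested at five concentrations. GI50 = concentration required for 50% inhibition of growth. TGI marks complete inhibition of growth.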

Assays:
Assay in all cases: NCI tumour cell line growth inhibition, 48 h
[1] = test system: 786-0 renal
[2] = test system: ACHN renal
[3] = test system: BT-549 breast
[4] = test system: CCRF-CEM leukemia
[5] = test system: DMS 114 small cell lung
[6] = test system: DMS 273 small cell lung
[7] = test system: DU-145 prostate
[8] = test system: HCC-2998 colon
[9] = test system: HS 578T breast
[10] = test system: MCF7 breast
[11] = test system: MDA-MB-231 breast
[12] = test system: MDA-MB-435
[13] = test system: NCI-H522 lung
[14] = test system: OVCAR-8 ovarian
[15] = test system: PC-3 prostate
[16] = test system: SR leukemia
[17] = test system: T-47D breast
[18] = test system: TK-10 renal
[19] = test system: A498 renal
[20] = test system: A549 NSCLC
[21] = test system: CAKI-1 renal
[22] = test system: COLO 205 colon
[23] = test system: DLD-1 colon
[24] = test system: EKVX NSCLC
[25] = test system: HCT-116 colon
[26] = test system: HCT-15 colon
[27] = test system: HL-60(TB) leukemia
[28] = test system: HOP-18 NSCLC
[29] = test system: HOP-62 NSCLC
[30] = test system: HT29 colon
[31] = test system: IGROV1 ovarian
[32] = test system: K-562 leukemia
[33] = test system: KM12 colon
[34] = test system: KM20L2 colon
[35] = test system: LOX IMVI melanoma
[36] = test system: LXFL 529 NSCLC
[37] = test system: M14 melanoma
[38] = test system: M19-MEL melanoma
[39] = test system: MALME-3M melanoma
[40] = test system: MOLT-4 leukemia
[41] = test system: NCI-H226 lung
[42] = test system: NCI-H23 lung
[43] = test system: NCI-H460 lung
[44] = test system: OVCAR-3 ovarian
[45] = test system: OVCAR-4 ovarian
[46] = test system: OVCAR-5 ovarian
[47] = test system: RPMI-8226 leukemia
[48] = test system: RXF 393 renal
[49] = test system: SF-268 CNS
[50] = test system: SF-295 CNS
[51] = test system: SK-MEL-2 melanoma
[52] = test system: SK-MEL-28 melanoma
[53] = test system: SK-MEL-5 melanoma
[54] = test system: SK-OV-3 ovarian
[55] = test system: SN12C renal
[56] = test system: SNB-19 CNS
[57] = test system: SNB-75 CNS
[58] = test system: SW-620 colon
[59] = test system: U251 CNS
[60] = test system: UACC-257 melanoma
[61] = test system: UACC-62 melanoma
[62] = test system: UO-31 renal
[63] = test system: SF-539 CNS
[64] = test system: SNB-78 CNS
[65] = test system: HOP-92 NSCLC

Work on `NC(=O)c1cn(C2OC(CO)C(O)C2O)c2ncnc(N)c12` (stereo not drawn) yielded a TGI [1] of 0.0684 µM, a TGI [2] of 0.103 µM and a TGI [3] of 0.0389 µM. For the same molecule, the GI50 [4] was 0.00559 µM and 0.0246 µM and 0.00627 µM, the TGI [4] was 0.148 µM and 0.0759 µM and the TGI [5] was 0.205 µM and 0.326 µM. For the same molecule, the GI50 [6] was 0.0875 µM and 0.07 µM, the TGI [6] was 118 nM [middle of 4 runs] and the TGI [7] was 0.0487 µM. The TGI [8] was 216 nM [middle of 4 runs], the TGI [9] was 0.0758 µM and the GI50 [10] was 0.0207 µM. For the same molecule, the TGI [11] was 0.102 µM, the TGI [12] was 0.036 µM and the GI50 [13] was 0.0482 µM and 0.021 µM. The TGI [13] was 0.206 µM and 0.0701 µM, the TGI [14] was 0.383 µM and 0.904 µM and 0.0921 µM and the TGI [15] was 0.00574 µM. It also gave a GI50 [16] of 0.0128 µM, a TGI [16] of 0.0946 µM and a TGI [17] of 0.0523 µM. It also gave a TGI [18] of 0.0707 µM.
For `COC(=O)C(=O)C1(CCC(C)=O)c2ccccc2-c2ccccc21`, the TGI [1] was > 100 µM, the TGI [19] was > 100 µM and the TGI [20] was > 100 µM. For the same molecule, the TGI [2] was > 100 µM, the TGI [21] was > 100 µM and the TGI [4] was > 100 µM. The TGI [22] was > 100 µM, the TGI [23] was > 100 µM and the TGI [5] was > 100 µM. For the same molecule, the TGI [6] was > 100 µM, the TGI [24] was > 100 µM and the TGI [8] was > 100 µM. For the same molecule, the TGI [25] was > 100 µM, the TGI [26] was > 100 µM and the TGI [27] was > 100 µM. For the same molecule, the TGI [28] was > 100 µM, the TGI [29] was > 100 µM and the TGI [30] was > 100 µM. For the same molecule, the TGI [31] was > 100 µM, the TGI [32] was > 100 µM and the TGI [33] was > 100 µM. The TGI [34] was > 100 µM, the TGI [35] was > 100 µM and the TGI [36] was > 100 µM. The TGI [37] was > 100 µM, the TGI [38] was > 100 µM and the TGI [39] was > 100 µM. The TGI [40] was > 100 µM, the TGI [41] was > 100 µM and the TGI [42] was > 100 µM. The TGI [43] was > 100 µM, the TGI [13] was > 100 µM and the TGI [44] was > 100 µM. The TGI [45] was > 100 µM, the TGI [46] was > 100 µM and the TGI [14] was > 100 µM. For the same molecule, the TGI [47] was > 100 µM, the TGI [48] was > 100 µM and the TGI [49] was > 100 µM. For the same molecule, the TGI [50] was > 100 µM, the TGI [51] was > 100 µM and the TGI [52] was > 100 µM. For the same molecule, the TGI [53] was > 100 µM, the TGI [54] was > 100 µM and the TGI [55] was > 100 µM. For the same molecule, the TGI [56] was > 100 µM, the TGI [57] was > 100 µM and the TGI [16] was > 100 µM. For the same molecule, the TGI [58] was > 100 µM, the TGI [18] was > 100 µM and the TGI [59] was > 100 µM. The TGI [60] was > 100 µM, the TGI [61] was > 100 µM and the TGI [62] was > 100 µM.
With `CCOC(=O)C(C)(C)Oc1ccc2c(=O)cc(-c3ccccc3)oc2c1` the TGI [1] was 37.7 µM, the TGI [19] was > 100 µM and the TGI [20] was 59 µM. The TGI [2] was > 100 µM, the TGI [4] was 43.6 µM and the TGI [22] was 36.8 µM. The TGI [5] was 44 µM, the TGI [24] was 84.8 µM and the TGI [8] was > 100 µM. For the same molecule, the TGI [25] was 31.1 µM, the TGI [26] was 54.8 µM and the TGI [27] was 32.8 µM. It also gave a TGI [28] of 54.3 µM, a TGI [29] of 41 µM and a TGI [31] of 78.4 µM. For the same molecule, the TGI [32] was 31.2 µM, the TGI [33] was 35.9 µM and the TGI [34] was 52.1 µM. It also gave a TGI [35] of 37.1 µM, a TGI [36] of 35.7 µM and a TGI [37] of 36.3 µM. For the same molecule, the TGI [38] was 41.5 µM, the TGI [39] was 37.6 µM and the TGI [40] was 32.5 µM. For the same molecule, the TGI [41] was 47 µM, the TGI [42] was 34.9 µM and the TGI [43] was > 100 µM. The TGI [13] was 28.5 µM, the TGI [44] was 39 µM and the TGI [46] was > 100 µM. The TGI [14] was 51.4 µM, the TGI [47] was 37.8 µM and the TGI [48] was 78.1 µM. For the same molecule, the TGI [49] was 56.3 µM, the TGI [50] was 75 µM and the TGI [63] was 38.2 µM. It also gave a TGI [51] of 31.5 µM, a TGI [52] of 30.7 µM and a TGI [53] of 28.2 µM. The TGI [54] was > 100 µM, the TGI [55] was > 100 µM and the TGI [56] was 42.8 µM. The TGI [57] was 57.6 µM, the TGI [64] was 71.8 µM and the TGI [58] was 48.5 µM. For the same molecule, the TGI [18] was > 100 µM, the TGI [59] was 44.9 µM and the TGI [60] was 31.2 µM. The TGI [61] was 33.7 µM and the TGI [62] was > 100 µM.
For `Cc1cccc(NC(=O)C(=O)C2C(=O)NC(=O)NC2=O)c1C`, the TGI [1] was > 100 µM, the TGI [19] was > 100 µM and the TGI [20] was > 100 µM. The TGI [2] was > 100 µM, the TGI [21] was > 100 µM and the TGI [4] was > 100 µM. The TGI [22] was > 100 µM, the TGI [23] was > 100 µM and the TGI [5] was > 100 µM. The TGI [6] was > 100 µM, the TGI [24] was > 100 µM and the TGI [8] was > 100 µM. For the same molecule, the TGI [25] was > 100 µM, the TGI [26] was > 100 µM and the TGI [27] was > 100 µM. The TGI [28] was > 100 µM, the TGI [29] was > 100 µM and the TGI [65] was > 100 µM. The TGI [30] was > 100 µM, the TGI [31] was > 100 µM and the TGI [32] was > 100 µM. For the same molecule, the TGI [33] was > 100 µM, the TGI [34] was > 100 µM and the TGI [35] was > 100 µM. For the same molecule, the TGI [36] was > 100 µM, the TGI [37] was > 100 µM and the TGI [38] was > 100 µM. For the same molecule, the TGI [39] was > 100 µM, the TGI [40] was > 100 µM and the TGI [41] was > 100 µM. For the same molecule, the TGI [42] was > 100 µM, the TGI [43] was > 100 µM and the TGI [13] was > 100 µM. The TGI [44] was > 100 µM, the TGI [45] was > 100 µM and the TGI [46] was > 100 µM. For the same molecule, the TGI [14] was > 100 µM, the TGI [47] was > 100 µM and the TGI [48] was > 100 µM. For the same molecule, the TGI [49] was > 100 µM, the TGI [50] was > 100 µM and the TGI [63] was > 100 µM. The TGI [51] was > 100 µM, the TGI [52] was > 100 µM and the TGI [53] was > 100 µM. For the same molecule, the TGI [54] was > 100 µM, the TGI [55] was > 100 µM and the TGI [56] was > 100 µM. The TGI [57] was > 100 µM, the TGI [64] was > 100 µM and the TGI [16] was > 100 µM. The TGI [58] was > 100 µM, the TGI [18] was > 100 µM and the TGI [59] was > 100 µM. For the same molecule, the TGI [60] was > 100 µM, the TGI [61] was > 100 µM and the TGI [62] was > 100 µM.
